The target in experiment [1] is T1, Apoptotic protease-activating factor 1 (Homo sapiens, UniProt O14727).
T1 sequence (O14727 whole entry): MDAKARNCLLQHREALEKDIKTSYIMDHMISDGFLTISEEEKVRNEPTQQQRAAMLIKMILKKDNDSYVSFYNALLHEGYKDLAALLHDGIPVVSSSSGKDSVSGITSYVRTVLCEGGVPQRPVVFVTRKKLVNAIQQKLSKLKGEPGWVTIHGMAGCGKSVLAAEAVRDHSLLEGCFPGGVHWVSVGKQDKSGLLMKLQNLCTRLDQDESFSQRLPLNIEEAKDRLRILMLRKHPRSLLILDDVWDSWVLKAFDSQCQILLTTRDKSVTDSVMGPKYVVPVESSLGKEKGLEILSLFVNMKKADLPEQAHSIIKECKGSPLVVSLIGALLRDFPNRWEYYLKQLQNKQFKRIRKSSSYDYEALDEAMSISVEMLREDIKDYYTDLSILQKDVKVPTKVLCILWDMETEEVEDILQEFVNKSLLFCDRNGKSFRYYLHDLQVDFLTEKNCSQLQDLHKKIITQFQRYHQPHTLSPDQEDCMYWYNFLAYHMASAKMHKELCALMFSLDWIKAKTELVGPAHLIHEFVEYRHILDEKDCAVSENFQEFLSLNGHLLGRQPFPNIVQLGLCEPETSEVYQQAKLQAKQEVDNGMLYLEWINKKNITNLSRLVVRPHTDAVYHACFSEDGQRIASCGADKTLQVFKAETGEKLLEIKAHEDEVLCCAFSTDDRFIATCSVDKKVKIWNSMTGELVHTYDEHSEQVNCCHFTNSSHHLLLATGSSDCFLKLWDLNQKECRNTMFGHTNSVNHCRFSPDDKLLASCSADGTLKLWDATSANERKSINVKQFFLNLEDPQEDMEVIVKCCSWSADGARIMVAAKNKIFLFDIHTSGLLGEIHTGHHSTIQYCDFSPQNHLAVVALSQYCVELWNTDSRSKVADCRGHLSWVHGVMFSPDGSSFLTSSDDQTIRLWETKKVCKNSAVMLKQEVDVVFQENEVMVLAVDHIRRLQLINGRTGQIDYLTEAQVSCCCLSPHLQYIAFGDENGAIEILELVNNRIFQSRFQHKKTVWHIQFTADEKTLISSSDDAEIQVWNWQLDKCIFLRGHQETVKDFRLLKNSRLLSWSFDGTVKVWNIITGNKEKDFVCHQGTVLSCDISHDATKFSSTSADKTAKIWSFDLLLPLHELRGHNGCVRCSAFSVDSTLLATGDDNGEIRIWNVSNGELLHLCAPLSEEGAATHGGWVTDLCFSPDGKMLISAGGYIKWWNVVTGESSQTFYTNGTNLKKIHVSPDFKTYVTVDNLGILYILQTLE
Nature of the experiment: SAR analysis of small molecule Activators of Apaf-1 in a Fluorescent assay - set 2. Format: functional. Conditions: read-out: EC50_Mean.

A short description of experiment [2]: SAR analysis of small molecule activators of Apaf-1 using a LZ-Caspase-9/Caspase-3 Fluorescent Selectivity assay - Set 2. Format: functional. The conditions noted are these: read-out: EC50_Mean.
Experiment [3] concerns the target T2, High affinity choline transporter 1 (Homo sapiens, UniProt Q9GZV3).
T2 sequence (Q9GZV3 whole entry): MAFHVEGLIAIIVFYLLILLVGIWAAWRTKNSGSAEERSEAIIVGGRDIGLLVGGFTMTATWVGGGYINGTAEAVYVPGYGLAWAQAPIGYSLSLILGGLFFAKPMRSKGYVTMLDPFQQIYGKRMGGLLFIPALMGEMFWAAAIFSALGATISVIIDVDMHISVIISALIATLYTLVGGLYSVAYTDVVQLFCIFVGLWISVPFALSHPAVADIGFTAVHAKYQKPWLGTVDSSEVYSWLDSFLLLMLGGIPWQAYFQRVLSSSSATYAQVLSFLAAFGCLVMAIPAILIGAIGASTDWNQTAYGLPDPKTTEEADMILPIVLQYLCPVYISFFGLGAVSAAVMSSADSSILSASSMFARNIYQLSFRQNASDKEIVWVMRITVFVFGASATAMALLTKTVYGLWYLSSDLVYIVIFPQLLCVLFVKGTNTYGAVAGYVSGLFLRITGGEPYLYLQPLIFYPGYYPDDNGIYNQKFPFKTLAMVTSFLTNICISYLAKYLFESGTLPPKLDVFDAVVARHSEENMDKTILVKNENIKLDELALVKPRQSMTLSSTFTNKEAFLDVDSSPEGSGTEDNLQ
The experiment in a line: human choline transporter blockers, potency – cell-based, 10-point CRC, membrane potential dye, dose response (AID 588401).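 Note: membrane potential dye fluorescence of choline-evoked depolarization via CHT.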 Format: functional.

Experiment [4] has as its target T3, Nuclear receptor subfamily 0 group B member 1 (Homo sapiens, UniProt P51843).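 Note: HEK293T cells transfected with SF-1 and DAX-1 plus StAR promoter luciferase reporter.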
T3 sequence (P51843 whole entry): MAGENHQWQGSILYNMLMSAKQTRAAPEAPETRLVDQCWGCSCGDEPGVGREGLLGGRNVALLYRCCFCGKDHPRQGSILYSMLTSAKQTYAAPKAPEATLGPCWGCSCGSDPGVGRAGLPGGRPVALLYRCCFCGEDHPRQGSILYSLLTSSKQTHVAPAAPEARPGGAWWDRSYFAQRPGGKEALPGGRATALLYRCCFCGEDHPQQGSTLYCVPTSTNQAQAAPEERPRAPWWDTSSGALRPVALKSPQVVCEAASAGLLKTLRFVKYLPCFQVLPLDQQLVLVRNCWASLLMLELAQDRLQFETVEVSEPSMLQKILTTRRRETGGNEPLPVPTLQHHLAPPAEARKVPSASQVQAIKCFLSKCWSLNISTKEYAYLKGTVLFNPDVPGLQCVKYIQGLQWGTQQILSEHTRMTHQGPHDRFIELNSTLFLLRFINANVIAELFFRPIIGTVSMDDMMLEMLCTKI
Format: functional, cell-based.

A further experiment can be described thus: cells. Format: functional, cell-based.
Experiment [5] addresses T2, High affinity choline transporter 1. Nature of the experiment: human choline transporter blockers, potency – cell-based, 5-point CRC, membrane potential dye, dose response (AID 504840). Format: functional.
For experiment [6], the target named is T4, Neuropeptides B/W receptor type 1 (Homo sapiens, UniProt P48145).
T4 sequence (P48145 whole entry): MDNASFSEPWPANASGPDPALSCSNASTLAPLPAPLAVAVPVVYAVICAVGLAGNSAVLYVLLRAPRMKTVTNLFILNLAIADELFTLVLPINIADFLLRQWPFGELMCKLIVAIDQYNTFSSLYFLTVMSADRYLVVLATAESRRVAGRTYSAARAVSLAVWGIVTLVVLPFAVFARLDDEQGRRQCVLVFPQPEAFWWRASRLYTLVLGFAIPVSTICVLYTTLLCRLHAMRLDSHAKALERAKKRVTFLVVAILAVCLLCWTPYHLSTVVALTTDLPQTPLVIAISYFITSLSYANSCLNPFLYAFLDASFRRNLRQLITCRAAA
The experiment in a line: human NPBW1 receptor blockade, IC50 – cell-based, fluorescence, dose response, set 6, late-stage follow-up (AID 588583). The experiment is classed as functional.

Experiment [7] deals with Melanin-concentrating hormone receptor 1 (Homo sapiens, UniProt Q99705). The experiment in a line: Late-stage fluorescence-based counterscreen for antagonists of the G-protein coupled receptor 7 (GPR7): cell-based dose response assay to identify antagonists of the melanin-concentrating hormone receptor 1 (MCHR1) Set 6. Format: functional. A general note: A counterscreen serves to expose hits that act by an unwanted route or on another target.

Drawing on ChEMBL document CHEMBL1201862, “PubChem BioAssay data set” (2004), this text covers EC50 and IC50 for 3 compounds.

Each structure is given as a SMILES string. The source made the active and inactive calls. Where only a bound is given, the exact number is not on record here.

Chain of Melanin-concentrating hormone receptor 1 (Q99705 whole entry): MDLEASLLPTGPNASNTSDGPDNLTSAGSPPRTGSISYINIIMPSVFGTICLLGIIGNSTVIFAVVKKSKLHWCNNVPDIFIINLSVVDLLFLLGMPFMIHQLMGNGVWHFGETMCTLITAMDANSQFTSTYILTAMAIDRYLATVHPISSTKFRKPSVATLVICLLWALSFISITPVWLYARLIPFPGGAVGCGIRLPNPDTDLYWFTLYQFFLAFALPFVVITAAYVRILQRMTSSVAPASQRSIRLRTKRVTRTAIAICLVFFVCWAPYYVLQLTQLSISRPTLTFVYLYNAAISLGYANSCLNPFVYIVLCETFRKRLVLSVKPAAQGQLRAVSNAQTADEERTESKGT

`CC(CN1CCOCC1)C(=O)O` (stereo not drawn): the EC50 in experiment [1] and in experiment [2] was > 100 µM (inactive) throughout.
Take `O=C(Nc1c(C(=O)N2CCC(N3CCCCC3)CC2)oc2ccccc12)c1ccc(F)cc1`: the IC50 – broadly, the concentration needed to halve the response being measured – was 1.63 µM (active) in experiment [3], > 67.5 µM (inactive) in experiment [4], > 67.5 µM (inactive) in the experiment “cells” and 0.91 µM (active) in experiment [5].
In the case of `N#CC(c1ccc([N+](=O)[O-])cc1)c1c(Cl)cnn(Cc2cccc3ccccc23)c1=O` (stereo not drawn), the IC50 in experiment [6] and in experiment [7] was 0.303 µM (active) throughout.
